Values quoted from earlier work, collected in patent US7419680B2, “Calcium phosphate-based materials containing zinc, magnesium, fluoride and carbonate” (New York University, priority 2003, dated 2008).

Conditions: earlier studies

b-alanyl-L-histadanato zinc
bone density / bone loss in vivo: effective in increasing bone density or in preventing bone loss in vivo
